The source of these data is ChEMBL document CHEMBL5338784, “Non-steroidal CYP17A1 Inhibitors: Discovery and Assessment” (J Med Chem, 2023).

Assay [1] addresses T1, Steroid 17-alpha-hydroxylase/17,20 lyase (Rattus norvegicus, UniProt P11715).
T1 sequence (P11715 whole entry): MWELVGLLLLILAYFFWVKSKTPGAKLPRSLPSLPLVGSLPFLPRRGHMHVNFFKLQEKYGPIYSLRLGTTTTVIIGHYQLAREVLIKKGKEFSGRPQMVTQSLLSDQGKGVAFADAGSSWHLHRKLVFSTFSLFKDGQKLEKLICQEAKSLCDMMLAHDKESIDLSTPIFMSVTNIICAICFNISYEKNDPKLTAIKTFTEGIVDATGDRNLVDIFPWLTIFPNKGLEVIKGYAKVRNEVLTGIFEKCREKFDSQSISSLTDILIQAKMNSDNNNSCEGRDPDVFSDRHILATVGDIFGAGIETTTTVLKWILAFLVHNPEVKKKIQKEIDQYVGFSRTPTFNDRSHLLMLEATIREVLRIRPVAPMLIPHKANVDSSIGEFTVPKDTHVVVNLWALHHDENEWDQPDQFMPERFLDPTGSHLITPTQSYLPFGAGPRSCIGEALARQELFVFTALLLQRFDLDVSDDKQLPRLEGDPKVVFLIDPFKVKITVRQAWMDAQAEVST
As to the kind of experiment: Binding affinity to Sprague-Dawley rat testicular microsome CYP17A1 assessed as inhibition constant. The assay is classed as ADME, microsomes, Testis.

Assay [2] addresses T2, Steroid 17-alpha-hydroxylase/17,20 lyase (Homo sapiens, UniProt P05093).
T2 sequence (P05093 whole entry): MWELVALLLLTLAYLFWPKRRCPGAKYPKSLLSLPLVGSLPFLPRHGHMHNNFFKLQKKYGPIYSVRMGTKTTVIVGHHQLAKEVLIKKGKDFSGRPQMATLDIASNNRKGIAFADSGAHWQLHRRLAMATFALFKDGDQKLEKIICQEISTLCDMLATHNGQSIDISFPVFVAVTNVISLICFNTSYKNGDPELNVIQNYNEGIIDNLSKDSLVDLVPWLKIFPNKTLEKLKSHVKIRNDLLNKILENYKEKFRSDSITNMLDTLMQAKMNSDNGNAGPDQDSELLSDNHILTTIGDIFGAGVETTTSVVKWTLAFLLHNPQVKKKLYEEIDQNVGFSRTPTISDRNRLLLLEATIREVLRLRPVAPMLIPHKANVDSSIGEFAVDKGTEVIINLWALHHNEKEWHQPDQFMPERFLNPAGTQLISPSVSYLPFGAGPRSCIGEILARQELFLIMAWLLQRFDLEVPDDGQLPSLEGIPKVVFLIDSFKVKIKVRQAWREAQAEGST
Description: Inhibition of human recombinant CYP17A1 C17,20-lyase activity expressed in Escherichia coli using [1,2-3H]-17alpha-hydroxypregnenolone as substrate incubated for 15 mins. The assay is classed as ADME.

Assay [3] deals with T2, Steroid 17-alpha-hydroxylase/17,20 lyase. Description: Inhibition of human testicular microsome CYP17. In kind it is ADME, microsomes, Testis.
Assay [4] addresses T1, Steroid 17-alpha-hydroxylase/17,20 lyase. As to the kind of experiment: Inhibiton of Sprague-Dawley rat testicular microsomal suspension CYP17A1 C17, 20 lyase activity using [1,2-3H]-17alpha-hydroxyprogesterone as substrate incubated for 15 mins in presence of NADPH generating system. In kind it is ADME, microsomes, Testis, Microsome.
The next assay has as its system Serum. Description: In vivo inhibition of testosterone in Sprague-Dawley rat assessed as serum testosterone level at 25 mg/kg, po measured after 5 hrs by radioimmuno assay relative to control. The assay is classed as functional.
For assay [5], the target named is T2, Steroid 17-alpha-hydroxylase/17,20 lyase. Description: Inhibiton of human CYP17A1 C17, 20 lyase activity expressed in Escherichia coli using [1,2-3H]-17alpha-hydroxyprogesterone as substrate incubated for 15 mins in presence of NADPH generating system. In kind it is ADME.
Assay [6] has the same target. Description: Inhibition of human testicular microsomal C17, 20 lyase activity using 17alpha-[1,2,6,7-3H] hydroxyprogesterone. The assay is classed as microsomes, Testis, Microsome.
Assay [7] deals with T1, Steroid 17-alpha-hydroxylase/17,20 lyase. Description: Inhibiton of Sprague-Dawley rat testicular microsomal suspension CYP17A1 17-alpha hydroxylase activity using radiolabelled progesterone as substrate preincubated for 5 mins followed by enzyme addition incubated for 15 mins in presence of NADPH generating system. The assay is classed as ADME, microsomes, Testis, Microsome.

Assay [8] has the same target. As to the kind of experiment: Inhibiton of Sprague-Dawley rat testicular microsomal suspension CYP17A1 C17, 20 lyase activity using radiolabelled 17alpha-hydroxyprogesterone as substrate preincubated for 5 mins followed by enzyme addition incubated for 30 mins in presence of NADPH generating system. In kind it is ADME, microsomes, Testis, Microsome.
Assay [9] shares this target. As to the kind of experiment: Inhibition of rat CYP17. In kind it is ADME.
The target in assay [10] is T2, Steroid 17-alpha-hydroxylase/17,20 lyase. As to the kind of experiment: Inhibition of human testis C17, 20 lyase activity using 17alpha-[1,2-3H] hydroxyprogesterone incubated for 30 mins in presence of NADPH generating system. In kind it is tissue-based.
For assay [11] the target is unchanged. As to the kind of experiment: Inhibition of human CYP17 C17,20-lyase activity. In kind it is ADME.
In assay [12] the target is T1, Steroid 17-alpha-hydroxylase/17,20 lyase. As to the kind of experiment: Inhibition of Spague-Dawley rat testicular microsome CYP17 using progesterone as substrate preincubated for 5 mins followed by enzyme addition measured after 20 mins in presence of NADPH. In kind it is ADME, microsomes, Testis.
The target in assay [13] is T2, Steroid 17-alpha-hydroxylase/17,20 lyase. As to the kind of experiment: Inhibition of human testicular CYP17. The assay is classed as ADME, tissue-based, Testis.
The target in assay [14] is T1, Steroid 17-alpha-hydroxylase/17,20 lyase. Description: Inhibition of rat testicular CYP17. In kind it is ADME, tissue-based, Testis.
For a further assay, the target named is Cytochrome P450 3A4 (Homo sapiens, UniProt P08684). As to the kind of experiment: Inhibition of human recombinant CYP3A4. In kind it is ADME.
Cytochrome P450 3A4, sequence (P08684 whole entry): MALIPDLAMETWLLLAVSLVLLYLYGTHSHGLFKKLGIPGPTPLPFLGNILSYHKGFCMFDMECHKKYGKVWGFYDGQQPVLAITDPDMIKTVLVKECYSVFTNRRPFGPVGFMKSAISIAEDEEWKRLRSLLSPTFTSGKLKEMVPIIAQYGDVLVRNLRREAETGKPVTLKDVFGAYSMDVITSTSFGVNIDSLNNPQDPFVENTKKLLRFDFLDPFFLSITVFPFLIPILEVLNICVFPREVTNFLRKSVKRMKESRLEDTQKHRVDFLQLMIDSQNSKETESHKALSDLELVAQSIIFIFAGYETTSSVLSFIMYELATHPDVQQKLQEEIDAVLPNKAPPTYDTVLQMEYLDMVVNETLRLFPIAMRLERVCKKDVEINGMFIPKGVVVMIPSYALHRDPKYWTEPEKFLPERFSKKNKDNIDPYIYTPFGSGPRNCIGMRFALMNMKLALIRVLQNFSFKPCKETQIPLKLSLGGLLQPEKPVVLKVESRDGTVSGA
The target of a further assay is Cytochrome P450 2D6 (Homo sapiens, UniProt P10635). Description: Inhibition of human recombinant CYP2D6. In kind it is ADME.
Cytochrome P450 2D6, sequence (P10635 whole entry): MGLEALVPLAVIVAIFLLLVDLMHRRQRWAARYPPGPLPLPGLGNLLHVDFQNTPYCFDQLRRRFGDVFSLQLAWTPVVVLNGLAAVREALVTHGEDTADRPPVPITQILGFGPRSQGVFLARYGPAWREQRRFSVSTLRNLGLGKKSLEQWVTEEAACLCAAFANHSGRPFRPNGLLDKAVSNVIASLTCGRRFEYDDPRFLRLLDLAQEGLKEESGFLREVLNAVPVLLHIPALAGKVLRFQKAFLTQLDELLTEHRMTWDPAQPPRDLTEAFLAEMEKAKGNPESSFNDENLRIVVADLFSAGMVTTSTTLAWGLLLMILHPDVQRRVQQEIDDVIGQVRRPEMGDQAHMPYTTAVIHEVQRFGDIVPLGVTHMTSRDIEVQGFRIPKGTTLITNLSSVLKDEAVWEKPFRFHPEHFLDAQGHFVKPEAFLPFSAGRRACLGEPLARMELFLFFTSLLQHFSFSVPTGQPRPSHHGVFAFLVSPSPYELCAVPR

pIC50, pKi: −log10 of the molar value.

By pKi is commonly meant −log10 of the Ki, conventionally taken in molar units. As for `CC1=C(c2cccnc2)Cc2cc(Cl)ccc21`, the pKi in assay [1] is 7.40.

The pIC50 is the negative decadic logarithm of the IC50, by convention in mol/L. For the compound `COc1ccc(-c2ccc([C@](O)(c3c[nH]cn3)C(C)C)cc2)cc1OC`, the pIC50 in [2] was 7.96.

In [3], `c1ccc(-c2ccc(Cn3ccnc3)cc2)cc1` gave a pIC50 of 6.00.

As for `C(=C/c1cccc(Cn2ccnc2)c1)/c1ccccc1`, the pIC50 in [4] was 7.62. In addition, in the assay on Serum, the Ct amounted to 135%.

On to `Cc1c(/C=C/[C@H](C)c2c[nH]cn2)sc2ccc(F)cc12`, for which the Ct with Serum is given as 2%. Moreover, the pIC50 in assay [5] was 7.68.

`Brc1cc(Br)c2oc(Cn3ccnc3)cc2c1` showed a pIC50 in assay [6] of 6.73.

On to `O=C1c2cc(Cl)ccc2CCC1c1cccnc1` (stereo not given), for which the pKi in [1] was 6.52.

For `Brc1ccc(CCCCCn2ccnc2)cc1`, the figures for the pIC50 in assay [7] and in assay [8] were 6.30 and 7.24, respectively.

With `COc1ccc2c(c1)CCC(Cc1c[nH]cn1)C2` (stereo not given), the pIC50 in [9] is 6.00.

In the case of `Clc1ccccc1C(c1cc2cc(Br)ccc2o1)n1ccnc1` (stereo not given), in assay [10], the pIC50 was 8.40.

In assay [11], `O=c1c(O)cc([C@H]2Oc3cc(O)cc(O)c3C[C@H]2O)cc2c([C@H]3Oc4cc(O)cc(O)c4C[C@H]3O)cc(O)c(O)c12` [THEAFLAVIN] showed a pIC50 of 4.60.

On to `COc1cccc2c1CCC(c1ccncc1)C2=O` (stereo not given), for which, in assay [12], the pIC50 is 4.89.

As for `C(=C\c1cccc(-n2ccnc2)c1)/c1ccccc1`, the pIC50 in assay [4] was 6.64.

As for `CC(c1ccc(-c2ccc(F)cc2)cc1)n1ccnc1` (stereo not given), the pIC50 was 6.62 in assay [13] and 6.27 in [14].

For the compound `c1cncc(Nc2ccc(-n3cnc4ccccc43)cc2)c1`, the pIC50 on Cytochrome P450 3A4 and at Cytochrome P450 2D6 was below 5.00 in each case.
